{"source": "patent US20250186446A1", "about": "“ORGANIC COMPOUNDS” (INTRA-CELLULAR THERAPIES, INC., priority 2022, published 2025)", "type_in_all_cases": "in vivo, mouse", "key": {"[1]": {"assay": "LC/MS/MS quantification of drug exposure in E0771 tumor-bearing mice", "protocol": "(§1) Tumor, liver, and feces samples are diluted in phosphate buffer and homogenized using ultrasonic processor. Plasma and homogenized tissue samples along with a set of standard and quality control samples are extracted by way of protein precipitation technique on Ostro plate (Waters) using 1% formic acid in acetonitrile spiked with internal standard. 2 μL of the filtered samples are injected using an autosampler and separated chromatographically using a Phenomenex, Synergi™, […], 50×3 mm, Polar-RP column, isocratic mobile phase combination of 0.1% formic acid in water and 0.1% formic acid in acetonitrile (40/60) with flow rate of 0.8 mL/min. The Sciex Qtrap 6500 mass spectrometer is used as the detector with positive electrospray in MRM ionization mode and an ion source temperature of 650° C. Quantification of Compound A is carried out using a calibration curve established with standards for the corresponding analyte concentration, retention time and mass profile.\nTumor, liver, and feces samples are diluted in phosphate buffer and homogenized using ultrasonic processor. […] Quantification of Compound B is carried out using a calibration curve established with standards for the corresponding analyte concentration, retention time and mass profile."}, "[2]": {"system": "4T1 murine breast cancer cells", "assay": "4T1 syngeneic breast cancer tumor growth and survival in mice", "settings": "4T1 tumors", "protocol": "(§2) 4T1 murine breast cancer cells are obtained from the American Type Culture Collection (ATCC) and maintained in RPMI medium containing 10% fetal bovine serum, 4 mM glutamine, and 1% penicillin/streptomycin. The cells were cultured in tissue culture flasks in a humidified incubator at 37° C., in an atmosphere of 5% CO2 and 95% air. The 4T1 tumor cells used for implantation are harvested and re-suspended at a concentration of 50×10^3 cells/mL in cold PBS. Nine weeks old female Balb/c mice (Balb/cJ, Jackson Laboratory) are injected subcutaneously in the right flank with 10×10^3 cells in 0.2 mL cold PBS. […] Mice are randomized in groups after the tumors are measured with a caliper in two dimensions to monitor size. Tumor size is calculated using the formula: Tumor Volume (mm^3)=(w^2×1)/2 where w=width and l=length, in mm. Tumors are measured twice per week for the duration of the study. Each mouse is euthanized as it reached a tumor volume endpoint of 1500 mm^3 or if they show any type of discomfort, whichever comes first.\n(§3) The anti-PD-1 RMP1-14 (Lot No. 800121F12A) and isotype (Lot No. 749620N1) antibody are purchased from BioXCell. The stock solution is diluted in PBS to yield a dosing solution of 0.1 or 1 mg/mL, which delivered 1 or 10 mg/kg respectively in a dosing volume of 0.2 mL (10 mL/kg, for a […]). Mice are administered isotype or anti-PD-1 RMP1-14 intraperitoneally in 0.2 mL (10 mL/kg, for a […]) twice a week.\nas §2, with “(mm^3) (w^2×1)/2” for “(mm^3)=(w^2×1)/2”"}, "[3]": {"system": "E0771 murine breast cancer cells", "assay": "E0771 syngeneic breast cancer tumor growth in mice", "settings": "E0771 tumors", "protocol": "E0771 murine breast cancer cells are obtained from the American Type Culture Collection (ATCC) and maintained in DMEM medium containing 10% fetal bovine serum, 4 mM glutamine, 20 mM HEPES, and 1% penicillin/streptomycin. The cells are cultured in tissue culture flasks in a humidified incubator at 37° C., in an atmosphere of 5% CO2 and 95% air. The E0771 tumor cells used for implantation are harvested and re-suspended at a concentration of 2.5×10^6 cells/mL in cold PBS. Nine weeks old female C57Bl/6 mice (C57Bl/6J, Jackson Laboratory) are injected subcutaneously in the right flank with 0.5×10^6 cells in 0.2 mL cold PBS. 10 days later the mice have a palpable size tumor, and specified size to start treatments (around 100 mm^3). Mice are randomized in groups after the tumors are measured with a caliper in two dimensions to monitor size. Tumor size is calculated using the formula: Tumor Volume (mm^3)=(w^2×1)/2 where w=width and l=length, in mm. Tumors are measured twice per week for the duration of the study. Each mouse is euthanized as it reached a tumor volume endpoint of 1500 mm^3 or if they show any type of discomfort, whichever comes first.\n[…] Compound A is synthesized at Intra-Cellular Therapies Inc. Compound A diets are used to treat mice. Compound A diet 900 ppm (diet supplements 900 mg of Compound A per kg to Picolab Rodent Diet 5053) is produced by Envigo (Madison WI). Mice are dosed 5 days a week with vehicle or Compound A.\nas §3\nMice are treated with Compound B alone, anti-PD-1 antibody alone, or the combination of Compound B and anti-PD-1 antibody. Compound B is synthesized at Intra-Cellular Therapies Inc. Compound B diets are used to treat mice. […]"}, "[4]": {"assay": "LC/MS/MS quantification of drug exposure in 4T1 tumor-bearing mice", "settings": "in absence or presence of anti-PD1", "protocol": "as §1"}, "[5]": {"settings": "Example 2, Compound A 300 ppm or 900 ppm in diet, monotherapy or with anti-PD1 10 mg/kg"}}, "data": [{"molecule": "CN1C(=O)c2c(nn(Cc3ccc(-c4cccc(F)n4)cc3)c2Nc2ccccc2)N2C1=N[C@@H]1CCC[C@@H]12", "note": "[Compound A]", "values": [{"measurement": "drug exposures in plasma, tissues, and feces", "setting": "[1]; Example 1, Compound A 900 ppm in diet, all groups receiving Compound A", "result": "comparable"}, {"measurement": "survival of animals", "setting": "[2]; [5]", "result": "improved"}, {"measurement": "tumor volume or weight relative to isotype (control)", "setting": "[2]; [5]", "result": "significantly reduce"}, {"measurement": "tumor volume", "setting": "[3]; Example 1, C57Bl/6 mice, Compound A 900 ppm in diet, anti-PD1 10 mg/kg ip, alone or combined, day 3, 7, 10, 14, 17, vs isotype control", "result": "Neither Compound A (900 ppm) treatment alone nor anti-PD-1 antibody (10 mg/kg) treatment alone shows a significant effect"}, {"measurement": "tumor weight at terminal sacrifice", "setting": "[3]; Example 1, Compound A 900 ppm in diet, anti-PD1 10 mg/kg, alone or combined, treatment day 17, vs isotype control", "result": "Neither Compound A (900 ppm) treatment alone nor anti-PD-1 antibody (10 mg/kg) treatment alone shows a significant effect"}, {"measurement": "exposure in plasma and tissues", "setting": "[4]; Example 2, Compound A in diet", "result": "comparable"}]}, {"molecule": "CC(=O)c1ccc(Cn2nc3c(c2Nc2ccc(F)cc2)C(=O)N(C)C2=NC(C)(C)CN23)cc1", "note": "[Compound B]", "values": [{"measurement": "exposure in plasma and tissues", "setting": "[1]; Example 3, Compound B in diet, in absence or presence of anti-PD1", "result": "comparable"}, {"measurement": "tumor volume", "setting": "[2]; Example 4, Compound B 100, 300 or 900 ppm in diet, anti-PD1 10 mg/kg, alone or combined, anti-PD1 alone: after day 5, vs isotype and/or anti-PD1 alone", "result": "significantly reduces"}, {"measurement": "tumor weight at terminal sacrifice", "setting": "[2]; Example 4, Compound B 100, 300 or 900 ppm in diet, anti-PD1 10 mg/kg, alone or combined, treatment day 14, vs isotype and/or anti-PD1 alone", "result": "significantly reduces"}, {"measurement": "tumor volume or weight relative to isotype (control) and/or anti-PD1 alone", "setting": "[3]; Example 3, Compound B 100, 300 or 900 ppm in diet, monotherapy or with anti-PD1 1 mg/kg", "result": "significantly reduces"}, {"measurement": "exposure in plasma and tissues", "setting": "[4]; Example 4, Compound B in diet", "result": "comparable"}]}]}
